Measured values: US20190031599A1, “INDANE DERIVATIVES AS MGLUR7 MODULATORS” (Takeda Pharmaceutical Company Limited, priority 2016, published 2019)

Molecular target: T1, human mGluR7 (Homo sapiens, UniProt Q14831)
T1 construct: expressed in transfected cells
Test: mGluR7 assay: CRE-directed luciferase reporter gene assay, reduction of forskolin stimulated cAMP production
Assay type: cell-based
Conditions: stable CHO cell line expressing the CRE-luc reporter and human mGluR7 genes; decrease of forskolin stimulated luminescence; 10-point concentration-response, duplicate wells
Method in brief: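 Stable CHO cell line co-expressing human mGluR7 and a CRE-luciferase reporter; compounds preincubated 15 min at 37 °C, then forskolin added and incubated 5 h at 37 °C. 10-point half-log concentration-response in duplicate, normalised to forskolin-alone (max) and forskolin plus tool mGluR7 agonist (min) controls.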

T1 sequence (Q14831 35-915): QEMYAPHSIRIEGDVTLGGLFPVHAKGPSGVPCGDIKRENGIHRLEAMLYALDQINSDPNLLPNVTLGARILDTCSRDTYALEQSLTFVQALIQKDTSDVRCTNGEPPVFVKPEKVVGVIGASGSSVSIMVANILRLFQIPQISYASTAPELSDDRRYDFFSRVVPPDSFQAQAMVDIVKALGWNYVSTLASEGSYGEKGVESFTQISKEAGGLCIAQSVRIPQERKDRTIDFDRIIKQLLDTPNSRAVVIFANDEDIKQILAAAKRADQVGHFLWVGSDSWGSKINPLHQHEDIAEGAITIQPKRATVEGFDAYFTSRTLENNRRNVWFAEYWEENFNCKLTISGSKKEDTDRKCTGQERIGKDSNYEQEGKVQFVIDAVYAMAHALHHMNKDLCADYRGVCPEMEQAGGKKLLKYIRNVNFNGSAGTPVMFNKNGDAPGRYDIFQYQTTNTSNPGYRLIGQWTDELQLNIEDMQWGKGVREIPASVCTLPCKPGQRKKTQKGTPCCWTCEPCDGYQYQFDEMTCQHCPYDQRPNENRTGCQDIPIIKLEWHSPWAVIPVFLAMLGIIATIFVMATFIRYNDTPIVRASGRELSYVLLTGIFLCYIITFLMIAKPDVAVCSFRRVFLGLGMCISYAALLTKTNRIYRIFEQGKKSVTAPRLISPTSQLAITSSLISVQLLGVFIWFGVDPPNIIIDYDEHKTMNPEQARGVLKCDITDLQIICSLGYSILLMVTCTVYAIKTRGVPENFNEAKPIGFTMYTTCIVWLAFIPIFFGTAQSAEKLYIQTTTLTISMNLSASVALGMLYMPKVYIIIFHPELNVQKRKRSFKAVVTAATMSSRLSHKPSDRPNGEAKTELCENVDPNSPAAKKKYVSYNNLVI

Row | SMILES | EC50 [µM]
1 | N[C@H]1c2ccccc2C[C@@H]1NC(=O)C(c1ccc(F)cc1F)N1CC(F)C1 (stereo partly drawn) [Example 105, N-[(1S,2S)-1-amino-2,3-dihydro-1H-inden-2-yl]-2-(2,4-difluorophenyl)-2-(3-fluoroazetidin-1-yl)acetamide] | 0.146
2 | N[C@H]1c2ccccc2C[C@@H]1NC(=O)C(c1ccc(F)cc1F)N1CCC1 (stereo partly drawn) [Example 108, N-[(1S,2S)-1-amino-2,3-dihydro-1H-inden-2-yl]-2-(azetidin-1-yl)-2-(2,4-difluorophenyl)acetamide] | 0.19
3 | COC1CN(C(C(=O)N[C@H]2Cc3ccccc3[C@@H]2N)c2ccc(F)cc2F)C1 (stereo partly drawn) [Example 111, N-[(1S,2S)-1-amino-2,3-dihydro-1H-inden-2-yl]-2-(2,4-difluorophenyl)-2-(3-methoxyazetidin-1-yl)acetamide] | 0.135
4 | C[C@H](C(=O)N[C@@H]1Cc2ccccc2[C@H]1N1CC(F)C1)c1ccc(F)cc1 [Example 112, (2S)—N-[(1R,2R)-1-(3-fluoroazetidin-1-yl)-2,3-dihydro-1H-inden-2-yl]-2-(4-fluorophenyl)propanamide] | 0.011
5 | C[C@H](C(=O)N[C@@H]1Cc2ccccc2[C@H]1S(C)(=O)=O)c1ccc(F)cc1 [Example 113, (2S)-2-(4-fluorophenyl)-N-[(1R,2R)-1-methanesulfonyl-2,3-dihydro-1H-inden-2-yl]propanamide] | 0.038
6 | C[C@H](C(=O)N[C@H]1Cc2ccccc2[C@@H]1N(Cc1ncco1)Cc1ncco1)c1ccc(F)cc1F [Example 114, (2S)—N-[(1S,2S)-1-{bis[(1,3-oxazol-2-yl)methyl]amino}-2,3-dihydro-1H-inden-2-yl]-2-(2,4-difluorophenyl)propanamide] | 0.101
7 | N[C@H]1c2ccccc2C[C@@H]1NC(=O)C(c1ccc(F)cc1F)N1CC(OC(F)F)C1 (stereo partly drawn) [Example 119, N-[(1S,2S)-1-amino-2,3-dihydro-1H-inden-2-yl]-2-[3-(difluoromethoxy)azetidin-1-yl]-2-(2,4-difluorophenyl)acetamide] | 0.063
8 | N[C@H]1c2ccccc2C[C@@H]1NC(=O)C1(c2ccccc2)CCNC1 (stereo partly drawn) [Example 120, N-[(1S,2S)-1-amino-2,3-dihydro-1H-inden-2-yl]-3-phenylpyrrolidine-3-carboxamide] | 3.32
9 | CC(C)(C)OC(=O)N[C@H]1c2ccccc2C[C@@H]1NC(=O)C1(c2ccccc2)CNC(=O)C1 (stereo partly drawn) [Example 121, tert-butyl N-[(1S,2S)-2-(5-oxo-3-phenylpyrrolidine-3-amido)-2,3-dihydro-1H-1-inden-1-yl]carbamate] | 0.042
10 | N[C@H]1c2ccccc2C[C@@H]1NC(=O)C1(c2ccccc2)CNC(=O)C1 (stereo partly drawn) [Example 122, N-[(1S,2S)-1-amino-2,3-dihydro-1H-inden-2-yl]-5-oxo-3-phenylpyrrolidine-3-carboxamide] | 0.485
11 | CC(C)(C)OC(=O)N[C@H]1c2ccccc2C[C@@H]1NC(=O)C1(c2ccccc2)CC(=O)C1 [Example 123, tert-butyl N-[(1S,2S)-2-(3-oxo-1-phenylcyclobutaneamido)-2,3-dihydro-1H-inden-1-yl]carbamate] | 0.068
12 | C[C@H](C(=O)N[C@H]1Cc2ccccc2[C@@H]1S(C)(=O)=O)c1ccc(F)cc1 [Example 132, (2S)-2-(4-fluorophenyl)-N-[(1S,2S)-1-methanesulfonyl-2,3-dihydro-1H-inden-2-yl]propanamide] | 0.005
13 | C[C@H](C(=O)N[C@H]1Cc2ccccc2[C@@H]1Nc1ncccn1)c1ccc(F)cc1F [Example 133, (2S)-2-(2,4-difluorophenyl)-N-[(1S,2S)-1-[(pyrimidin-2-yl)amino]-2,3-dihydro-1H-inden-2-yl]propanamide] | 0.178
14 | CCN[C@H]1c2ccccc2C[C@@H]1NC(=O)[C@@H](C)c1ccc(F)cc1 [Example 134, (2S)—N-[(1S,2S)-1-(ethylamino)-2,3-dihydro-1H-inden-2-yl]-2-(4-fluorophenyl)propanamide] | 0.086
15 | CC(C(=O)N[C@H]1Cc2ccccc2[C@@H]1NC(=O)OC(C)(C)C)c1ccc(OC(F)F)cc1 (stereo partly drawn) [Example 151, tert-butyl N-[(1S,2S)-2-{2-[4-(difluoromethoxy)phenyl]propanamido}-2,3-dihydro-1H-inden-1-yl]carbamate] | 0.441
16 | COc1cc(F)ccc1C(C)C(=O)N[C@H]1Cc2ccccc2[C@@H]1NC(=O)OC(C)(C)C (stereo partly drawn) [Example 152, tert-butyl N-[(1S,2S)-2-[2-(4-fluoro-2-methoxyphenyl)propanamido]-2,3-dihydro-1H-inden-1-yl]carbamate] | 0.183
17 | CC(C(=O)N[C@H]1Cc2ccccc2[C@@H]1NC(=O)OC(C)(C)C)c1ccc(F)cc1Cl (stereo partly drawn) [Example 153, tert-butyl N-[(1S,2S)-2-[2-(2-chloro-4-fluorophenyl)propanamido]-2,3-dihydro-1H-inden-1-yl]carbamate] | 0.063
18 | CC(C(=O)N[C@H]1Cc2ccccc2[C@@H]1NC(=O)OC(C)(C)C)c1ccc(F)cc1C(F)(F)F (stereo partly drawn) [Example 154, tert-butyl N-[(1S,2S)-2-{2-[4-fluoro-2-(trifluoromethyl)phenyl]propanamido}-2,3-dihydro-1H-inden-1-yl]carbamate] | 0.326
19 | CN[C@@H]1c2ccccc2C[C@H]1NC(=O)[C@H](C)c1ccc(F)cc1 [Example 155, (2R)-2-(4-fluorophenyl)-N-[(1R,2R)-1-(methylamino)-2,3-dihydro-1H-inden-2-yl]propanamide] | 2.22
20 | CN[C@H]1c2ccccc2C[C@@H]1NC(=O)[C@H](C)c1ccc(F)cc1 [Example 157, (2R)-2-(4-fluorophenyl)-N-[(1S,2S)-1-(methylamino)-2,3-dihydro-1H-inden-2-yl]propanamide] | 1.38
21 | CN[C@@H]1c2ccccc2C[C@@H]1NC(=O)[C@@H](C)c1ccc(F)cc1 [Example 160, (2S)-2-(4-fluorophenyl)-N-[(1R,2S)-1-(methylamino)-2,3-dihydro-1H-inden-2-yl]propanamide] | 5.94
